The record followed here is ChEMBL document CHEMBL1147836, “Benzo[b]thiophene-2-carboxamides and benzo[b]furan-2-carboxamides are potent antagonists of the human H3-receptor” (Bioorg Med Chem Lett, 2006).

The experiment concerns the target Histamine H3 receptor (Homo sapiens, UniProt Q9Y5N1). The experiment in a line: Antagonist activity at human histamine H3 receptor by [35S]GTP-gamma-S assay. The experiment is classed as functional.

Each structure is given as a SMILES string. pKi: −log10 of the molar value. A value given as a limit tells only on which side of the number the result lay.

Sequence of Histamine H3 receptor (Q9Y5N1 whole entry): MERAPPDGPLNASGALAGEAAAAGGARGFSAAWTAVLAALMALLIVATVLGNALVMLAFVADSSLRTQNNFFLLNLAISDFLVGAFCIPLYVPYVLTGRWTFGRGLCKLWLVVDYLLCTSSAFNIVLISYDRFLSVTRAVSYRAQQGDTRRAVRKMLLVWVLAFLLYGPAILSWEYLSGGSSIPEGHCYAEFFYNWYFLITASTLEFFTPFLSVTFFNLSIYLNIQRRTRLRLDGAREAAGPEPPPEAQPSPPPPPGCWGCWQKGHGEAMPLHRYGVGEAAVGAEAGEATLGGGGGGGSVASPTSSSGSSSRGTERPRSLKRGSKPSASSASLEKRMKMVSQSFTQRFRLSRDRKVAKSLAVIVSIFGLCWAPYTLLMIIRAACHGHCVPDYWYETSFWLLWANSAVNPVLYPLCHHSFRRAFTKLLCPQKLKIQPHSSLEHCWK

For orientation: pKi means the Ki on a negative log10 scale, so that one unit is a factor of ten. Read a low pKi as a high Ki. In the case of `O=C(c1cc2ccc(C(F)(F)F)cc2o1)N1CCC[C@H]1CN1CCCCC1`, the pKi is 7.66.

In the case of `CCOc1cccc2cc(C(=O)N3CCC[C@H]3CN3CCCC3)oc12`, the negative-log Ki (pKi) is 8.15.

In the case of `N#Cc1ccc2oc(C(=O)N3CCC[C@H]3CN3CCCC3)cc2c1`, the pKi was 8.30.

The compound `O=C(c1cnc2ccccc2c1)N1CCC[C@H]1CN1CCCC1` showed a pKi of less than 6.82.

Consider `O=C(c1cc2ccc(C(F)(F)F)cc2o1)N1CCC[C@H]1CN1CCCC1`, for which the negative-log Ki (pKi) was 7.82.

Compound `O=C(c1cc2cc(C(F)(F)F)ccc2o1)N1CCC[C@H]1CN1CCCCC1` had a pKi of 8.15.

In turn, `O=C(c1cc2cc(C(F)(F)F)ccc2o1)N1CCC[C@H]1CN1CCCC1` gave a negative-log Ki (pKi) of 8.40.

The compound `O=C(c1cc2cc(Cl)ccc2o1)N1CCC[C@H]1CN1CCCC1` gave a pKi of 8.30.

The compound `O=C(c1sc2ccccc2c1Cl)N1CCC[C@H]1CN1CCCC1` gave a pKi of 7.92.

The compound `CCN(CC)C[C@@H]1CCCN1C(=O)c1cc2cc(C(F)(F)F)ccc2o1` had a negative logarithm of the Ki (pKi) of 7.85.

`CCN(CC)C[C@@H]1CCCN1C(=O)c1cc2ccc(C(F)(F)F)cc2o1` gave a pKi of 7.34.

Take `O=C(c1cc2cc(OC(F)(F)F)ccc2o1)N1CCC[C@H]1CN1CCCC1`: the negative-log Ki (pKi) is 7.96.

For the compound `O=C(c1cc2ccccc2s1)N1CCC[C@H]1CN1CCCC1`, the pKi is 8.40.

Turning to `O=C(c1cnc2ccccc2c1)N1CCC[C@H]1CN1CCCCC1`, the negative-log Ki (pKi) is less than 6.82.
